Test results taken from ChEMBL document CHEMBL4033793, “Potent and Selective Inhibitors of Human Sirtuin 5” (J Med Chem, 2018).
pIC50: −log10 of the molar value. Residues, ends and D or L forms follow the SMILES beside them. *: point of attachment. X27 = O=C(O)[C@H](CC(=O)*)SCc1ccc([N+](=O)[O-])cc1; X35 = O=C(O)[C@@H](CC(=O)*)SCc1ccc(C(F)(F)F)cc1; X32 = O=C(O)[C@H](CC(=O)*)SCc1ccc(C(F)(F)F)cc1; X28 = O=C(O)[C@@H](CC(=O)*)Sc1ccc(Cl)c(Cl)c1; X23 = O=C(O)[C@@H](CC(=O)*)Sc1cccc2ccccc12; X24 = O=C(O)[C@H](CC(=O)*)SCc1ccc(Cl)cc1Cl; X29 = COc1ccc(S[C@@H](CC(=O)*)C(=O)O)cc1OC; X36 = O=C(O)[C@@H](CC(=O)*)Sc1ccc2ccccc2c1; X30 = COc1ccc(S[C@H](CC(=O)*)C(=O)O)cc1OC; X31 = O=C(O)[C@H](CC(=O)*)Sc1cccc(Cl)c1Cl; X38 = O=C(O)[C@H](CC(=O)*)Sc1cccc2ccccc12; X33 = Cc1ccc(S[C@@H](CC(=O)*)C(=O)O)cc1C; X26 = O=C(O)[C@@H](CC(=O)*)SCCc1ccccc1; X34 = O=C(O)[C@@H](CC(=O)*)Sc1ccccc1Cl; X37 = O=C(O)[C@H](CC(=O)*)SCCCc1ccccc1; Bz = O=C(c1ccccc1)*

Biological target: NAD-dependent protein deacylase sirtuin-5, mitochondrial (Homo sapiens, UniProt Q9NXA8)
Sequence (Q9NXA8 whole entry): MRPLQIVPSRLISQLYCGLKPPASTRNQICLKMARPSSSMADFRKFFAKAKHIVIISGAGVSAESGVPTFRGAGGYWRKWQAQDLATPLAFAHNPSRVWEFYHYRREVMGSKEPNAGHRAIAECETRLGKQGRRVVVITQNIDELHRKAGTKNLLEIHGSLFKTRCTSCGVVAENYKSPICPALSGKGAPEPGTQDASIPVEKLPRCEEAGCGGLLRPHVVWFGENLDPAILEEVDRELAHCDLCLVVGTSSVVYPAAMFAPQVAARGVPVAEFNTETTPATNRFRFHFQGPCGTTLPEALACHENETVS
Assay: Inhibition of human recombinant N-terminal Strep2-tagged SIRT5 expressed in Escherichia coli BL21 (DE3) using Abz-GVLK(glutaryl)AY(NO2)GV-NH2 as substrate in presence of NAD+ by fluorescence assay

Structure (SMILES)	pIC50
CC(C)C[C@H](NC(=O)[C@@H](NC(=O)CNC(=O)c1ccccc1)C(C)C)C(=O)N[C@@H](CCCCNC(=O)C[C@@H](Sc1cccc2ccccc12)C(=O)O)C(=O)N[C@@H](CCC(=O)O)C(=O)N[C@@H](Cc1ccc(O)cc1)C(=O)NCC(=O)N[C@H](C(N)=O)C(C)C (Bz-GVLK(X23)EYGV-NH2)	5.66
CC(C)C[C@H](NC(=O)[C@@H](NC(=O)CNC(=O)c1ccccc1)C(C)C)C(=O)N[C@@H](CCCCNC(=O)C[C@H](SCc1ccc(Cl)cc1Cl)C(=O)O)C(=O)N[C@@H](CCC(=O)O)C(=O)N[C@@H](Cc1ccc(O)cc1)C(=O)NCC(=O)N[C@H](C(N)=O)C(C)C (Bz-GVLK(X24)EYGV-NH2)	6.26
CC(C)C[C@H](NC(=O)[C@@H](NC(=O)CNC(=O)c1ccccc1)C(C)C)C(=O)N[C@@H](CCCCNC(=O)C[C@@H](SCCc1ccccc1)C(=O)O)C(=O)N[C@@H](CCC(=O)O)C(=O)N[C@@H](Cc1ccc(O)cc1)C(=O)NCC(=O)N[C@H](C(N)=O)C(C)C (Bz-GVLK(X26)EYGV-NH2)	6.23
CC(C)C[C@H](NC(=O)[C@@H](NC(=O)CNC(=O)c1ccccc1)C(C)C)C(=O)N[C@@H](CCCCNC(=O)C[C@H](SCc1ccc([N+](=O)[O-])cc1)C(=O)O)C(=O)N[C@@H](CCC(=O)O)C(=O)N[C@@H](Cc1ccc(O)cc1)C(=O)NCC(=O)N[C@H](C(N)=O)C(C)C (Bz-GVLK(X27)EYGV-NH2)	5.43
CC(C)C[C@H](NC(=O)[C@@H](NC(=O)CNC(=O)c1ccccc1)C(C)C)C(=O)N[C@@H](CCCCNC(=O)C[C@@H](Sc1ccc(Cl)c(Cl)c1)C(=O)O)C(=O)N[C@@H](CCC(=O)O)C(=O)N[C@@H](Cc1ccc(O)cc1)C(=O)NCC(=O)N[C@H](C(N)=O)C(C)C (Bz-GVLK(X28)EYGV-NH2)	5.79
COc1ccc(S[C@@H](CC(=O)NCCCC[C@H](NC(=O)[C@H](CC(C)C)NC(=O)[C@@H](NC(=O)CNC(=O)c2ccccc2)C(C)C)C(=O)N[C@@H](CCC(=O)O)C(=O)N[C@@H](Cc2ccc(O)cc2)C(=O)NCC(=O)N[C@H](C(N)=O)C(C)C)C(=O)O)cc1OC (Bz-GVLK(X29)EYGV-NH2)	6.49
COc1ccc(S[C@H](CC(=O)NCCCC[C@H](NC(=O)[C@H](CC(C)C)NC(=O)[C@@H](NC(=O)CNC(=O)c2ccccc2)C(C)C)C(=O)N[C@@H](CCC(=O)O)C(=O)N[C@@H](Cc2ccc(O)cc2)C(=O)NCC(=O)N[C@H](C(N)=O)C(C)C)C(=O)O)cc1OC (Bz-GVLK(X30)EYGV-NH2)	5.04
CC(C)C[C@H](NC(=O)[C@@H](NC(=O)CNC(=O)c1ccccc1)C(C)C)C(=O)N[C@@H](CCCCNC(=O)C[C@H](Sc1cccc(Cl)c1Cl)C(=O)O)C(=O)N[C@@H](CCC(=O)O)C(=O)N[C@@H](Cc1ccc(O)cc1)C(=O)NCC(=O)N[C@H](C(N)=O)C(C)C (Bz-GVLK(X31)EYGV-NH2)	6.15
CC(C)C[C@H](NC(=O)[C@@H](NC(=O)CNC(=O)c1ccccc1)C(C)C)C(=O)N[C@@H](CCCCNC(=O)C[C@H](SCc1ccc(C(F)(F)F)cc1)C(=O)O)C(=O)N[C@@H](CCC(=O)O)C(=O)N[C@@H](Cc1ccc(O)cc1)C(=O)NCC(=O)N[C@H](C(N)=O)C(C)C (Bz-GVLK(X32)EYGV-NH2)	6.10
Cc1ccc(S[C@@H](CC(=O)NCCCC[C@H](NC(=O)[C@H](CC(C)C)NC(=O)[C@@H](NC(=O)CNC(=O)c2ccccc2)C(C)C)C(=O)N[C@@H](CCC(=O)O)C(=O)N[C@@H](Cc2ccc(O)cc2)C(=O)NCC(=O)N[C@H](C(N)=O)C(C)C)C(=O)O)cc1C (Bz-GVLK(X33)EYGV-NH2)	7.34
CC(C)C[C@H](NC(=O)[C@@H](NC(=O)CNC(=O)c1ccccc1)C(C)C)C(=O)N[C@@H](CCCCNC(=O)C[C@@H](Sc1ccccc1Cl)C(=O)O)C(=O)N[C@@H](CCC(=O)O)C(=O)N[C@@H](Cc1ccc(O)cc1)C(=O)NCC(=O)N[C@H](C(N)=O)C(C)C (Bz-GVLK(X34)EYGV-NH2)	5.51
CC(C)C[C@H](NC(=O)[C@@H](NC(=O)CNC(=O)c1ccccc1)C(C)C)C(=O)N[C@@H](CCCCNC(=O)C[C@@H](SCc1ccc(C(F)(F)F)cc1)C(=O)O)C(=O)N[C@@H](CCC(=O)O)C(=O)N[C@@H](Cc1ccc(O)cc1)C(=O)NCC(=O)N[C@H](C(N)=O)C(C)C (Bz-GVLK(X35)EYGV-NH2)	5.66
CC(C)C[C@H](NC(=O)[C@@H](NC(=O)CNC(=O)c1ccccc1)C(C)C)C(=O)N[C@@H](CCCCNC(=O)C[C@@H](Sc1ccc2ccccc2c1)C(=O)O)C(=O)N[C@@H](CCC(=O)O)C(=O)N[C@@H](Cc1ccc(O)cc1)C(=O)NCC(=O)N[C@H](C(N)=O)C(C)C (Bz-GVLK(X36)EYGV-NH2)	5.93
CC(C)C[C@H](NC(=O)[C@@H](NC(=O)CNC(=O)c1ccccc1)C(C)C)C(=O)N[C@@H](CCCCNC(=O)C[C@H](SCCCc1ccccc1)C(=O)O)C(=O)N[C@@H](CCC(=O)O)C(=O)N[C@@H](Cc1ccc(O)cc1)C(=O)NCC(=O)N[C@H](C(N)=O)C(C)C (Bz-GVLK(X37)EYGV-NH2)	5.95
CC(C)C[C@H](NC(=O)[C@@H](NC(=O)CNC(=O)c1ccccc1)C(C)C)C(=O)N[C@@H](CCCCNC(=O)C[C@H](Sc1cccc2ccccc12)C(=O)O)C(=O)N[C@@H](CCC(=O)O)C(=O)N[C@@H](Cc1ccc(O)cc1)C(=O)NCC(=O)N[C@H](C(N)=O)C(C)C (Bz-GVLK(X38)EYGV-NH2)	7.02
